Source: patent EP4559466A1, “MICROBIOTA SIGNATURE TO DETECT FOOD ADDICTION AND TREATMENT THEREOF” (Universitat Pompeu Fabra (UPF), priority 2023, dated 2025)

Assays:
[1] = test system: C57BI/6J mice; assay: Mouse food addiction operant protocol with prebiotics in drinking water; format: in vivo; details: for mice that achieved the addiction criteria (2-3 criteria, considered addicted): 1% in drinking water during whole protocol, 120 sessions, late period (95-112 sessions), n=12 per group, 41.67% of control mice addicted, χ^2=8.57 control vs lactulose, χ^2=12 control vs rhamnose, P<0.01; for persistence of response: compared to control group
Experimental: Mice were trained to obtain chocolate-flavored pellets (n=59) in operant boxes during 98 sessions in 1 h-daily self-administration sessions. The operant boxes and daily self-administration protocol of food addiction were accurately described in previous publications (Martín-García E, Domingo-Rodriguez L, Maldonado R. An Operant Conditioning Model Combined with a Chemogenetic Approach to Study the Neurobiology of Food Addiction in Mice. Bio-Protocol 2020;10:1-23. doi:10.21769/bioprotoc.3777; Domingo-Rodriguez L, Ruiz de Azua I, Dominguez E, et al. A specific prelimbic-nucleus accumbens pathway controls resilience versus vulnerability to food addiction. Nat Commun 2020;11:1-16. doi:10.1038/s41467-020-14458-y). Mice were under fixed-ratio 1 (FR1) during six sessions, followed by 92 sessions under FR5. The food addiction-like behavior was evaluated during this operant conditioning maintained by food at a late period (82-92 sessions) to classify mice into the addictive phenotype considering three food addiction-like criteria (1) persistence of response, (2) motivation, and (3) compulsivity. These criteria summarized the main features of the human food addiction diagnosis through the Yale Food Addiction Scale (YFAS 2.0) based on the 5th edition of the diagnostic and statistical manual of mental disorders (DSM-5) for substance use disorders. The three behavioral tests performed to evaluate these three addiction-like criteria (responding during the pellet-free period for the persistence of response, progressive ratio schedule for motivation, and shock-associated unconditioned stimulus for compulsivity) were performed as previously described (Mancino S, Burokas A, Gutiérrez-Cuesta J, et al. Epigenetic and Proteomic Expression Changes Promoted by Eating Addictive-Like Behavior. Neuropsychopharmacology 2015;40:2788-800. doi:10.1038/npp.2015.129). At the end of the late period, animals were categorized into two subpopulations, food-addicted or nonaddicted, depending on the number of addiction-like criteria achieved. Mice with two or three addiction-like criteria were considered addicted, and mice with 0 or 1 addiction-like criteria were considered nonaddicted.
Additionally, four additional phenotypic traits were also evaluated as factors of vulnerability, impulsivity, cognitive inflexibility, appetitive and aversive cue-reactivity. • Impulsivity, the inability to stop a response once it is initiated, was measured as the number of non-reinforced active responses during the time-out period (10 s) after each pellet delivery. This impulsivity-like behavior was delimited to the three consecutive days before the progressive ratio. • Cognitive inflexibility is the incapacity to shift responding to stimuli that have previously predicted the availability of reward. […] In the next 30 min, the cue light associated with pellet delivery during a typical operant training session was illuminated with no contingent pellet reinforcement. To signal the change in the schedule, the cue light was presented twice non-contingently and for 4 s. • Aversive cue-reactivity: To study the conditioning to an aversive stimulus (grid floor), non-reinforced active responses during the following session after the shock test were measured. Mice were placed in the operant box for one hour with the same grid floor used during the shock test. However, during this session, pressing the active lever had no consequences: no shock, no chocolate-flavored pellets, and no cue light.
Mice (n=36) were trained in the same experimental conditions previously described to obtain chocolate flavored pellets during 120 sessions of a 1h-daily self-administration protocol. The duration of training was enhanced in this experiment in order to allow a longer exposure to the prebiotics that could facilitate their effects to modify the behavioral responses. Mice were trained for six days at FR1, followed by 114 FR5 sessions. […]

[2] = test system: Blautia; assay: Quantitative PCR of Blautia in mouse feces after prebiotic treatment; format: in vivo; details: 1% in drinking water, feces collected at end of protocol, qPCR, vs control
Experimental: At the end of the protocol, feces were collected to quantify Blautia abundance in the gut by quantitative PCR. DNA was extracted from 0.18-0.2g of feces using QIAamp® Fast DNA Stool Mini kit (Qiagen, Germany) and was stored at -20°C.
To quantify the Blautia in the feces, primers g-Blau-R (5'-[…]-3') SEQ ID No 3 and g-Blau-F (5'- […]- 3'), targeting SEQ ID No 4 16S rRNA gene, were used, as previously described. Each reaction mixture (10 µl) comprises LightCycler 480 SYBR Green I Master (Roche Life Science, Germany) and 1ng/µl of genomic DNA. The amplification program consisted of one cycle at 95°C for 10 min, followed by 40 cycles at 94°C for 20 s, 55°C for 20 s, and 60°C for 40 s. The fluorescent products were detected in the last step of each cycle. qPCR amplification and detection were performed in 384-well optical plates with an QuantStudio 12K Flex Real-Time PCR System (Applied Biosystems). A melting curve analysis was performed at the end of the experiment to determine the specificity of an assay. The melting program consisted of the first step of 95°C for 15 s, the second step of 60°C for 1 min, and the last dissociation step of 95°C for 15 s. […]
A qPCR was performed to confirm the effectiveness of targeted prebiotics in increasing Blautia genus abundance in the gut. Based on the generated standard curve, the amount of Blautia per gram of feces was determined. […]

[3] = test system: Blautia; details: Reichardt et al. 2018 (rhamnose); Cui et al. 2021 (lactulose); cited from earlier work
[4] = 1% in drinking water, late period

SMILES	mice that achieved the addiction criteria (2-3 criteria, considered addicted) [1]	persistence of response [1, 4]	Blautia abundance in the gut (amount of Blautia per gram of feces) [2]	amount of Blautia in mice feaces [3]	cognitive inflexibility ([1]; 1% in drinking water, late period, compared to control (U=35.50, P<0.05) and lactulose (U=17.00, P<0.001))	compulsivity in seeking for palatable food ([1]; 1% in drinking water, late period, compared to control mice, Mann-Whitney's U=31.50, P<0.01)	motivation for chocolate-flavored pellets ([1]; 1% in drinking water, late period, rhamnose compared to lactulose, Mann-Whitney's U=31.50, P<0.05)
OC[C@H]1O[C@@H](O[C@@H]2[C@@H](CO)OC(O)(CO)[C@H]2O)[C@H](O)[C@@H](O)[C@H]1O (stereo partly drawn) [lactulose, 4-O-β-D-galactopyranosyl-D-fructofuranose, reference compound]	none	similar	non-significant trend to enhance	increases			
C[C@@H]1OC(O)[C@H](O)[C@H](O)[C@H]1O (stereo partly drawn) [rhamnose, (3R,4R,5R,6S)-6-methyloxane-2,3,4,5-tetrol]	none	similar	significantly increased	increases	lower	decreased	reduced
